This passage reports Binding property results from patent EP1174424A1, “3-[…] D DERIVATIVES” (CHUGAI SEIYAKU KABUSHIKI KAISHA, priority 1999, dated 2000).

The structures appear in SMILES notation.

This assay deals with T1, Bovine thymus 1α,25-dihydroxy vitamin D3 receptor (Bos taurus, UniProt Q28037).
T1 construct: Bovine thymus 1α,25-dihydroxy vitamin D3 receptor was purchased from YAMASA BIOCHEMICAL; purchased YAMASA BIOCHEMICAL (Choshi, Chiba, Japan); host or cells: bovine thymus (tissue preparation)
T1 sequence (Q28037 1-426): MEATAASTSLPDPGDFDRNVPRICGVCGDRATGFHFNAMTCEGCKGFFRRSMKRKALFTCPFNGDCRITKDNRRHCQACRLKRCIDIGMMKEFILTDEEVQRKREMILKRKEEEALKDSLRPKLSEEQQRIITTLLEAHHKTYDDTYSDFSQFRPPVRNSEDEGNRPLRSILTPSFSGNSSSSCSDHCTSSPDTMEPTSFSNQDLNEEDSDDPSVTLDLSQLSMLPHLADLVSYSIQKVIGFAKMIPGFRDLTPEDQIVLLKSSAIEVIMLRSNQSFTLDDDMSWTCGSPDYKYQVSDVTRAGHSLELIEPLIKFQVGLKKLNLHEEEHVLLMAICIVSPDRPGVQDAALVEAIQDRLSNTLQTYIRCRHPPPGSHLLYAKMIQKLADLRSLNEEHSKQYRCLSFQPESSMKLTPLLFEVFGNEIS
In words: Assay for binding to vitamin D receptor (VDR); displacement of [3H]-1α,25-dihydroxy vitamin D3. To be noted: relative value, with that of 1α,25-dihydroxy vitamin D3 taken as 100; [3H]-1α,25-dihydroxy vitamin D3 at 0.1 nM, overnight at 4°C. The protocol: Test example 1: Assay for binding to vitamin D receptor (VDR)
Bovine thymus 1α,25-dihydroxy vitamin D3 receptor was purchased from YAMASA BIOCHEMICAL (Choshi, Chiba, Japan) and dissolved in 0.05 M phosphate buffer (pH 7.4) containing 0.3M KCl and 5mM dithiothreitol just before use. Aliquots (500 µl, 0.23 mg protein) of the receptor solution and ethanol solutions (50 µl) of 1α,25-dihydroxy vitamin D3 or derivatives (compounds of the present invention) at various concentrations were combined, and pre-incubated at 25°C for 60 minutes. To the resultant receptor mixtures, [^3H]-1α,25-dihydroxy vitamin D3 was added at 0.1 nM, followed by standing overnight at 4°C. The mixtures were treated with dextran coated charcoal for 30 minutes at 4°C to separate the bound arid free forms of [^3H]-1α,25-dihydroxy vitamin D3, and centrifuged at 3000 rpm for ten minutes. Each of the resultant supernatants (500 µl) was mixed with ACS-II (9.5 ml) (AMERSHAM, England) for radioactivity measurement.
The binding property of the compounds of the present invention was expressed in relative values, with that of 1α,25-dihydroxy vitamin D3 taken as 100. (Table 1)
(In general: Displacement assays read how much labelled ligand stays bound in the presence of the test substance.)
In turn, `C=C1/C(=C\C=C2/CCC[C@]3(C)[C@@H]([C@H](C)CCCC(C)(C)O)CC[C@@H]23)C[C@](C)(O)C[C@@H]1O` [3-Me-(1α,3α)-dihydroxy vitamin D3] came in with a Binding property of under 0.1.
Under `C=C1/C(=C\C=C2/CCC[C@]3(C)[C@@H]([C@H](C)CCCC(C)(C)O)CC[C@@H]23)C[C@@](C)(O)C[C@@H]1O` [3-Me-(1α,3β)-dihydroxy vitamin D3] stands 18; under `C=C1/C(=C\C=C2/CCC[C@]3(C)[C@@H]([C@H](C)CCCC(C)(C)O)CC[C@@H]23)C[C@](C)(O)C[C@H]1O` [3-Me-(1β,3α)-dihydroxy vitamin D3, 3-methyl-1β,3α-dihydroxy vitamin D3], under 0.1.
For the molecule `C=C1/C(=C\C=C2/CCC[C@]3(C)[C@@H]([C@H](C)CCCC(C)(C)O)CC[C@@H]23)C[C@@](C)(O)C[C@H]1O` [3-Me-(1β,3β)-dihydroxy vitamin D3, 3-methyl-1β,3β-dihydroxy vitamin D3], the Binding property is recorded as under 0.1.
